The values that follow come from patent US7271198B2, “Method of treating autoimmune diseases” (Wake Forest University, priority 2000, dated 2007).

Test [1] concerns acetylated histones H3 and H4 in the TGF-β1 promoter. Put plainly: Chromatin immunoprecipitation (ChIP) assay, TGF-β1 gene promoter. It is filed as cell-based, human. The text has this: The effect of HDAC inhibition on the acetylation of H3 or H4 associated with the TGF-β1 gene promoter was examined using the chromatin immunoprecipitation (ChIP) assay in an attempt to determine if HDIs induce accumulation of acetylated histones in chromatin associated with the TGF-β1 promoter in SLE PBMCs but not in healthy normal controls. The study undertaken included immunoprecipitating formaldehyde cross-linked, sonicated chromatin fragments from vehicle- and HDI-treated cells using anti-acetyl H3 and H4 antibodies, respectively. The immunoprecipitated DNA released from the bound protein was analyzed by quantitative PCR. A series of primer sets encompassing the TGF-β1 gene from −1.4 kbp to +0.6 kbp relative to the start site of transcription were created (FIG. 6A). Approximately a 12- and 4-fold enhancement of acetylated histones H3 and H4, respectively, in the TGF-β1 promoter in SLE was observed (FIGS. 6B & 6C).
To determine whether this effect was selective for the TGF-β1 gene in SLE PBMCs, the level of histone acetylation in the glucose-6-phosphate dehydrogenase (G6PD) gene was also examined. As shown in FIGS. 6E & 6F, there was no change in the levels of acetylated histones H3 and H4 at the G6PD gene in SLE PBMCs.

Test [2] relates to TGF-β1 gene chromatin. Put plainly: DNase I sensitivity assay of TGF-β1 gene in SLE PBMCs. It is filed as cell-based, human. As for the experimental part:
Because nuclease susceptibility is one of the characteristics of active chromatin, a DNase I sensitivity assay was used to examine chromatin conformation of the TGF-β1 gene in SLE PBMCs in the absence or presence of TSA. SLE PBMCs were treated with 1000 ng/ml of TSA for 18 hr, a treatment course shown previously to result in an optimal increase of TGF-β1 mRNA. Equal amounts of purified nuclei isolated from vehicle- or TSA-treated cells were exposed to increasing concentrations of DNase I (FIGS. 7A & 7B). Changes in DNase sensitivity were measured by a DNase I-PCR assay using 0.5 μg of DNA. As shown in the FIG. 7A, the cells treated with only vehicle were relatively resistant to DNase I digestion, even with use of higher concentrations of DNase I (0.25 μg/μl). In contrast, cells treated with TSA were digested in the lower concentration (0.025 μg/μl) of DNase I (FIG. 7B; lanes 3–6). […] There was no change in DNase I sensitivity at the G6PD gene promoter in vehicle- or TSA-treated SLE PBMCs (FIGS. 7A & 7B). Thus, it is likely that Trichostatin A increases DNase I sensitivity in the TGF-β1 gene of SLE PBMCs.

The subject of test [3] is IL-6 protein. The test can be described thus: IL-6 protein secretion by MRL/lpr splenocytes. It is filed as cell-based, mouse. The following applies: splenocytes with LPS and IFN-γ 72 hr; stimulated control 34.4±7.6 pg/ml; p=0.002. The method, then:
In determining whether TSA or SAHA down-regulate IL-6 mRNA content, splenocytes from 24-wk MRL/lpr mice were treated with increasing concentrations of TSA for 18 hr. […] TSA decreased IL-6 transcript at a concentration of 100 ng/ml and exerted maximal inhibition at 300 ng/ml. To address whether TSA and SAHA down-regulate LPS- and IFN-γ induced IL-6 transcript levels, splenocytes from younger MRL/lpr mice were treated in the absence or presence of TSA or SAHA for 18 hr before LPS and IFN-γ stimulation for 6 or 18 hr. […] Next, the effect of TSA and SAHA on IL-6 protein secretion in stimulated splenocytes was measured (FIG. 10D). When splenocytes were cultured with LPS and IFN-γ for 72 hr, there was a mean (±SEM) 34.4±7.6 pg/ml of IL-6 protein secretion.

The subject of test [4] is IFN-γ transcript. The test can be described thus: RT-PCR of IFN-γ transcript in SLE T cells. It is filed as cell-based, human. As for the experimental part: T cells were cultured in the absence or presence of increasing concentrations of TSA for 18 hr in 5% CO2 at 37° C. RNA was isolated, cDNAs were prepared, and RT-PCR was performed as previously detailed (D. Laxminarayana, et al., J. Clin. Invest. 92, 2207 (1993)). The primers used were: […]
The reaction mixtures were subjected to 30 cycles of denaturation (94° C., 1 min) and annealing for 1 min at 53° C. (CD154), […] (GAPDH) and 55° C. (IL-10 and IFN-γ). Extension was for 2 min at 72° C. with a final extension of 7 min at 72° C. using a DNA thermal cycler (Perkin-Elmer).
Low production of IFN-γ by SLE T cells may reflect down-regulation of gene expression (B. S. Handwerger, et al., in Lupus: Molecular and Cellular Pathogenesis, G. M. Kammer and G. C. Tsokos, Eds. (Humana Press, Totowa, N.J., 1999), chap. 21; E. Hagiwara, et al., Arthritis Rheum. 39, 379 (1996)). To establish whether TSA can up-regulate IFN-γ expression, SLE T cells were treated for 18 hr in the absence or presence of TSA. During that time, TSA induced a three-fold increase in IFN-γ transcript compared to untreated cells (FIG. 3A, lanes 1 and 7, and FIG. 3B). When T cells were activated with PMA+IO in the absence of TSA, peak IFN-γ transcript expression increased 13-fold at 1 hr over basal levels relative to GAPDH transcript, but waned thereafter. […]

In test [5] the test system is mesangial cells. Put plainly: Nitric oxide production by MRL/lpr mesangial cells. The conditions noted are these: LPS 1 mg/ml, 24 hr. The class given is cell-based, mouse. An excerpt:
Excessive production of nitric oxide (NO) is crucial to the initiation and maintenance of glomerulonephritis in MRL/lpr mice. Pharmacologic inhibition of NO synthesis in MRL/lpr mice abrogates disease progression. In examining whether HDIs could suppress inducible nitric oxide synthetase (iNOS), splenocytes from 10 wk old mice were stimulated in the presence or absence of TSA or SAHA with LPS and IFN-γ for 24 hr. […] To determine whether HDIs could suppress nitric oxide secretion by mesangial cells, mesangial cells were stimulated with LPS ([…]) in the presence of vehicle or TSA for 24 hr. The supernatant from the cell culture was assayed for nitric oxide.

Take `CC(/C=C/C(=O)NO)=C\[C@@H](C)C(=O)c1ccc(N(C)C)cc1` [TSA, Trichostatin A]: the “acetylated state of G6PD gene” value in test [1] (SLE PBMCs) is given as “does not change”. Also, in test [1] (SLE PBMCs, ChIP), the “enhancement of acetylated histone H3 in the TGF-β1 promoter” value is about 12 fold and the “enhancement of acetylated histone H4 in the TGF-β1 promoter” value was about 4 fold. For the same compound, in test [1] (normal PBMCs treated with TSA), the “enhancement of acetylated histones H3 and H4 at the TGF-β1 promoter” value is recorded as “essentially no enhancement”. The “increase in DNase I sensitivity, TGF-β1 promoter” value in test [2] (SLE PBMCs, 1000 ng/ml TSA, 18 hr) is “three-fold”. Also, the “DNase I sensitivity at the G6PD gene promoter” value in test [2] (vehicle- or TSA-treated SLE PBMCs) is given as “no change”. Also, in test [3], the IL-6 protein secretion result is given as “no detectable IL-6 protein secretion”. Moreover, the “peak increase in IFN-γ mRNA over untreated cells relative to GAPDH” value in test [4] (SLE T cells activated with PMA+IO in presence of TSA, at 6 hr, P=0.031) was determined as 37 fold. Moreover, in test [4] (SLE T cells, TSA 18 hr, not activated), the “increase in IFN-γ transcript compared to untreated cells” value is on record as “three-fold”. For the same compound, the “LPS-induced nitric oxide production” value in test [5] is given as “able to suppress”.
